Test results published in ChEMBL document CHEMBL3608273, “Discovery of Biaryl Amides as Potent, Orally Bioavailable, and CNS Penetrant RORγt Inhibitors” (ACS Med Chem Lett, 2015).

Tested on: not listed separately
Assay: AUC (0 to 4 hrs) in C57BL/6 mouse blood at 2 mg/kg, ip by LC/MS/MS method
Format: ADME, organism-based
Parameters: time < 4 hr, dose 2 mg/kg, route intraperitoneal
Conditions: not given

Row | SMILES | AUC(0-t) at 4 h [ng·h/mL]
1 | CCS(=O)(=O)c1ccc(CC(=O)Nc2cc(Cl)c(-c3ccc(F)cc3C#N)c(Cl)c2)cc1 | 1380
2 | NS(=O)(=O)c1ccc(CC(=O)Nc2cc(Cl)c(-c3ccccc3OC(F)(F)F)c(Cl)c2)cc1 | 4880
3 | CS(=O)(=O)c1ccc(CC(=O)Nc2ccc(-c3ccc(Cl)cc3OC(F)(F)F)c(Cl)c2)cc1 | 1730
4 | CCS(=O)(=O)c1ccc(CC(=O)Nc2cc(Cl)c(-c3ccccc3OC(F)F)c(Cl)c2)cc1 | 1180
5 | CCS(=O)(=O)c1ccc(CC(=O)Nc2ccc(-c3ccc(Cl)cc3OC(F)(F)F)c(Cl)c2)cc1 | 881
6 | CCS(=O)(=O)c1ccc(CC(=O)Nc2cc(Cl)c(-c3ccccc3C#N)c(Cl)c2)cc1 | 1930
7 | CCS(=O)(=O)c1ccc(CC(=O)Nc2cc(Cl)c(-c3ccccc3OC(F)(F)F)c(Cl)c2)cc1 | 1220
8 | Cc1cc(NC(=O)Cc2ccc(S(C)(=O)=O)cc2)ccc1-c1ccc(Cl)cc1OC(F)(F)F | 2400
9 | CS(=O)(=O)c1ccc(CC(=O)Nc2cc(Cl)c(-c3ccccc3OC(F)(F)F)c(Cl)c2)cc1 | 835
10 | CS(=O)(=O)c1ccc(CC(=O)Nc2ccc(-c3ccc(Cl)cc3OC(F)(F)F)c(F)c2)cc1 | 2020

Tested on: not listed separately
Assay: Half life in C57BL/6 mouse at 1 mg/kg, ip by LC/MS/MS method
Format: ADME, organism-based
Conditions: in vivo

Row | SMILES | half-life [h]
11 | CCS(=O)(=O)c1ccc(CC(=O)Nc2ccc(-c3ccccc3C(F)(F)F)c(Cl)c2)cc1 | 2.2
12 | CCS(=O)(=O)c1ccc(CC(=O)Nc2ccc(-c3ccccc3OC(F)(F)F)c(Cl)c2)cc1 | 4.2
13 | CS(=O)(=O)c1ccc(CC(=O)Nc2cc(Cl)c(-c3ccccc3OC(F)(F)F)c(Cl)c2)cc1 | 9.7

Tested on: not listed separately
Assay: Inhibition of Th17 cell differentiation in mouse CD4-positive T cells incubated for 3 days by ELISA method
Conditions: Th17, 72 h, read-out: pIC50 (converted)

Row | SMILES | IC50 [nM]
14 | CCS(=O)(=O)c1ccc(CC(=O)Nc2ccc(-c3ccccc3OC(C)C)c(Cl)c2)cc1 | 79.4
15 | CCS(=O)(=O)c1ccc(CC(=O)Nc2ccc(-c3ccccc3OC(F)(F)F)c(-c3cncnc3)c2)cc1 | < 31.6
16 | CCS(=O)(=O)c1ccc(CC(=O)Nc2ccc(-c3ccccc3OC(F)(F)F)c(C(=O)O)c2)cc1 | > 10000
17 | CCS(=O)(=O)c1ccc(CC(=O)Nc2cc(Cl)c(-c3ccc(F)cc3C#N)c(Cl)c2)cc1 | 158
18 | NS(=O)(=O)c1ccc(CC(=O)Nc2cc(Cl)c(-c3ccccc3OC(F)(F)F)c(Cl)c2)cc1 | 7.94
19 | CCS(=O)(=O)c1ccc(CC(=O)Nc2ccc(-c3ccccc3C(F)(F)F)c(Cl)c2)cc1 | 200
20 | CS(=O)(=O)c1ccc(CC(=O)Nc2ccc(-c3ccc(Cl)cc3OC(F)(F)F)c(Cl)c2)cc1 | 25.1
21 | CCS(=O)(=O)c1ccc(CC(=O)Nc2cc(Cl)c(-c3ccccc3OC(F)F)c(Cl)c2)cc1 | 10
22 | CCS(=O)(=O)c1ccc(CC(=O)Nc2cc(Cl)c(-c3ccccc3OC(F)(F)F)c(C#N)c2)cc1 | 31.6
23 | CCS(=O)(=O)c1ccc(CC(=O)Nc2ccc(-c3ccccc3)cc2)cc1 | > 10000
24 | CCS(=O)(=O)c1ccc(CC(=O)Nc2ccc(-c3ccccc3OC(F)(F)F)cc2)cc1 | 158
25 | CCS(=O)(=O)c1ccc(CC(=O)Nc2ccc(-c3ccc(Cl)cc3OC(F)(F)F)c(Cl)c2)cc1 | 7.94
26 | CCS(=O)(=O)c1ccc(CC(=O)Nc2ccc(-c3ccccc3OC(F)(F)F)c(C(C)=O)c2)cc1 | 2510
27 | CCS(=O)(=O)c1ccc(CC(=O)Nc2ccc(-c3ccccc3Cl)c(Cl)c2)cc1 | 1000
28 | CCS(=O)(=O)c1ccc(CC(=O)Nc2ccc(-c3ccccc3OC(F)(F)F)nc2)cc1 | 7940
29 | CCS(=O)(=O)c1ccc(CC(=O)Nc2ccc(-c3ccccc3OC(F)(F)F)c(C)c2)cc1 | 25.1
30 | CCS(=O)(=O)c1ccc(CC(=O)Nc2cc(Cl)c(-c3ccccc3C#N)c(Cl)c2)cc1 | 79.4
31 | CCS(=O)(=O)c1ccc(CC(=O)Nc2ccc(-c3ccccc3CN(C)C)c(Cl)c2)cc1 | > 10000
32 | CCS(=O)(=O)c1ccc(CC(=O)Nc2ccc(-c3ccccc3OC(F)(F)F)c(Cl)c2)cc1 | 79.4
33 | CCS(=O)(=O)c1ccc(CC(=O)Nc2ccc(-c3ccccc3)c(Cl)c2)cc1 | 6310
34 | Cc1cc(NC(=O)Cc2ccc(S(C)(=O)=O)cc2)ccc1-c1ccc(Cl)cc1OC(F)(F)F | 63.1
35 | CCS(=O)(=O)c1ccc(CC(=O)Nc2ccc(-c3ccccc3OC(F)(F)F)c(-c3ccno3)c2)cc1 | 63.1
36 | CCS(=O)(=O)c1ccc(CC(=O)Nc2cc(C)c(-c3ccccc3OC(F)(F)F)c(Cl)c2)cc1 | < 3.16
37 | CCS(=O)(=O)c1ccc(CC(=O)Nc2ccc(-c3ncccc3C(F)(F)F)c(Cl)c2)cc1 | > 5010
38 | CCS(=O)(=O)c1ccc(CC(=O)Nc2ccc(-c3ccccc3OC(F)(F)F)c(C(F)(F)F)c2)cc1 | 126
39 | CCS(=O)(=O)c1ccc(CC(=O)Nc2ccc(-c3cccn3C)c(Cl)c2)cc1 | > 6310
40 | CS(=O)(=O)c1ccc(CC(=O)Nc2ccc(-c3ccc(Cl)cc3OC(F)(F)F)c(F)c2)cc1 | 50.1

Tested on: Mus musculus
Assay: Dose normalized AUC (0 to infinity) in C57BL/6 mouse at 2 mg/kg, po by LC/MS/MS method
Format: ADME, organism-based
Conditions: in vivo

Row | SMILES | AUC/dose [ng·h/mL/mg/kg]
41 | CCS(=O)(=O)c1ccc(CC(=O)Nc2ccc(-c3ccccc3C(F)(F)F)c(Cl)c2)cc1 | 713
42 | CCS(=O)(=O)c1ccc(CC(=O)Nc2ccc(-c3ccccc3OC(F)(F)F)c(Cl)c2)cc1 | 1313
43 | CS(=O)(=O)c1ccc(CC(=O)Nc2cc(Cl)c(-c3ccccc3OC(F)(F)F)c(Cl)c2)cc1 | 2465

Tested on: not listed separately
Assay: Cmax in C57BL/6 mouse at 2 mg/kg, po by LC/MS/MS method
Format: ADME, organism-based
Parameters: dose 2 mg/kg, route oral
Conditions: in vivo

Row | SMILES | Cmax [ng/mL]
44 | CCS(=O)(=O)c1ccc(CC(=O)Nc2ccc(-c3ccccc3C(F)(F)F)c(Cl)c2)cc1 | 211
45 | CCS(=O)(=O)c1ccc(CC(=O)Nc2ccc(-c3ccccc3OC(F)(F)F)c(Cl)c2)cc1 | 203
46 | CS(=O)(=O)c1ccc(CC(=O)Nc2cc(Cl)c(-c3ccccc3OC(F)(F)F)c(Cl)c2)cc1 | 214

Tested on: not listed separately
Assay: AUC (0 to 4 hrs) in C57BL/6 mouse brain at 2 mg/kg, ip by LC/MS/MS method
Format: ADME, organism-based
Parameters: time < 4 hr, dose 2 mg/kg, route intraperitoneal
Conditions: not given

Row | SMILES | AUC(0-t) at 4 h [ng·h/mL]
47 | CCS(=O)(=O)c1ccc(CC(=O)Nc2cc(Cl)c(-c3ccc(F)cc3C#N)c(Cl)c2)cc1 | 76
48 | NS(=O)(=O)c1ccc(CC(=O)Nc2cc(Cl)c(-c3ccccc3OC(F)(F)F)c(Cl)c2)cc1 | 388
49 | CS(=O)(=O)c1ccc(CC(=O)Nc2ccc(-c3ccc(Cl)cc3OC(F)(F)F)c(Cl)c2)cc1 | 1700
50 | CCS(=O)(=O)c1ccc(CC(=O)Nc2cc(Cl)c(-c3ccccc3OC(F)F)c(Cl)c2)cc1 | 462
51 | CCS(=O)(=O)c1ccc(CC(=O)Nc2ccc(-c3ccc(Cl)cc3OC(F)(F)F)c(Cl)c2)cc1 | 1760
52 | CCS(=O)(=O)c1ccc(CC(=O)Nc2cc(Cl)c(-c3ccccc3C#N)c(Cl)c2)cc1 | 200
53 | CCS(=O)(=O)c1ccc(CC(=O)Nc2cc(Cl)c(-c3ccccc3OC(F)(F)F)c(Cl)c2)cc1 | 946
54 | Cc1cc(NC(=O)Cc2ccc(S(C)(=O)=O)cc2)ccc1-c1ccc(Cl)cc1OC(F)(F)F | 3520
55 | CS(=O)(=O)c1ccc(CC(=O)Nc2cc(Cl)c(-c3ccccc3OC(F)(F)F)c(Cl)c2)cc1 | 658
56 | CS(=O)(=O)c1ccc(CC(=O)Nc2ccc(-c3ccc(Cl)cc3OC(F)(F)F)c(F)c2)cc1 | 2350

Tested on: Mus musculus
Assay: Dose normalized AUC (0 to infinity) in C57BL/6 mouse at 10 mg/kg, po by LC/MS/MS method
Format: ADME, organism-based
Conditions: in vivo

Row | SMILES | AUC/dose [ng·h/mL/mg/kg]
57 | Cc1cc(NC(=O)Cc2ccc(S(C)(=O)=O)cc2)ccc1-c1ccc(Cl)cc1OC(F)(F)F | 4048

Species on record: Mus musculus
Conditions: C57BL/6 (B6), 1 to 10 mg/kg
Description: Inhibition of disease severity in C57BL/6 (B6) mouse model of experimental autoimmune encephalomyelitis at 1 to 10 mg/kg, po qd dosed starting from day of immunization

Row | SMILES | inhibition
58 | Cc1cc(NC(=O)Cc2ccc(S(C)(=O)=O)cc2)ccc1-c1ccc(Cl)cc1OC(F)(F)F | Dose-dependent effect

Target: T1, Nuclear receptor ROR-gamma (Homo sapiens, UniProt P51449)
T1 sequence (P51449 whole entry): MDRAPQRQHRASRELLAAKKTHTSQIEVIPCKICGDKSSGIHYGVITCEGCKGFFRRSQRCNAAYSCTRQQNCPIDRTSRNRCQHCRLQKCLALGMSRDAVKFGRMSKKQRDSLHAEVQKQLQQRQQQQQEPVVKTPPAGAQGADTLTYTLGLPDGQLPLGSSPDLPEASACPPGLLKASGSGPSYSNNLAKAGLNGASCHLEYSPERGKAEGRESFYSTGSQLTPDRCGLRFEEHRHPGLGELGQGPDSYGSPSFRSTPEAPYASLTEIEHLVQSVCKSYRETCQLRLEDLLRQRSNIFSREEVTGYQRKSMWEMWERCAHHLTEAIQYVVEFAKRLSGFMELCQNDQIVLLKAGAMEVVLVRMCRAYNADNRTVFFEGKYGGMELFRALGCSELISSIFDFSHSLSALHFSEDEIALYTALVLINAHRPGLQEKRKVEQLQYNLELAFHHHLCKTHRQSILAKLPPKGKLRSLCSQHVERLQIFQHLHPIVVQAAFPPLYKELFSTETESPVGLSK
Assay: Inhibition of RORgammat (unknown origin) assessed as inhibition of agonist-induced response by FRET assay
Conditions: not given

Row | SMILES | IC50 [nM]
59 | CCS(=O)(=O)c1ccc(CC(=O)Nc2ncc(-c3cc(Cl)ccc3Cl)s2)cc1 | > 25100
60 | CCS(=O)(=O)c1ccc(CC(=O)Nc2nnc(-c3cc(Cl)ccc3Cl)s2)cc1 | > 25100
61 | CCS(=O)(=O)c1ccc(CC(=O)Nc2cccc(-c3cc(Cl)ccc3Cl)n2)cc1 | > 25100

Tested on: not listed separately
Assay: Blood clearance in C57BL/6 mouse at 1 mg/kg, ip by LC/MS/MS method
Format: ADME, organism-based
Conditions: not given

Row | SMILES | CL/F [mL/min/kg]
62 | CCS(=O)(=O)c1ccc(CC(=O)Nc2ccc(-c3ccccc3C(F)(F)F)c(Cl)c2)cc1 | 17.6
63 | CCS(=O)(=O)c1ccc(CC(=O)Nc2ccc(-c3ccccc3OC(F)(F)F)c(Cl)c2)cc1 | 11.6
64 | CS(=O)(=O)c1ccc(CC(=O)Nc2cc(Cl)c(-c3ccccc3OC(F)(F)F)c(Cl)c2)cc1 | 5.5

Tested on: not listed separately
Assay: Ratio of AUC (0 to 4 hrs) in brain to blood of C57BL/6 mouse at 2 mg/kg, ip by LC/MS/MS method
Format: ADME, organism-based
Conditions: not given

Row | SMILES | Kp
65 | CCS(=O)(=O)c1ccc(CC(=O)Nc2nc(-c3cc(Cl)ccc3Cl)cs2)cc1 | 1.5

Tested on: not listed separately
Assay: Oral bioavailability in C57BL/6 mouse at 2 mg/kg by LC/MS/MS method
Format: ADME, organism-based
Conditions: in vivo

Row | SMILES | bioavailability [%]
66 | CCS(=O)(=O)c1ccc(CC(=O)Nc2ccc(-c3ccccc3C(F)(F)F)c(Cl)c2)cc1 | 75
67 | CCS(=O)(=O)c1ccc(CC(=O)Nc2ccc(-c3ccccc3OC(F)(F)F)c(Cl)c2)cc1 | 102
68 | CS(=O)(=O)c1ccc(CC(=O)Nc2cc(Cl)c(-c3ccccc3OC(F)(F)F)c(Cl)c2)cc1 | 100

Tested on: Mus musculus
Assay: Volume of distribution at steady state in C57BL/6 mouse at 1 mg/kg, ip by LC/MS/MS method
Format: ADME, organism-based
Conditions: in vivo

Row | SMILES | Vdss [L/kg]
69 | CCS(=O)(=O)c1ccc(CC(=O)Nc2ccc(-c3ccccc3C(F)(F)F)c(Cl)c2)cc1 | 3.2
70 | CCS(=O)(=O)c1ccc(CC(=O)Nc2ccc(-c3ccccc3OC(F)(F)F)c(Cl)c2)cc1 | 3.8
71 | CS(=O)(=O)c1ccc(CC(=O)Nc2cc(Cl)c(-c3ccccc3OC(F)(F)F)c(Cl)c2)cc1 | 4.4
